Assays:
[1] = system: carrageenan-induced thermal hyperalgesia; assay: rat carrageenan-induced inflammatory pain model (thermal hyperalgesia, hind paw withdrawal latency); type: in vivo, Male Wistar rats; conditions: for effect on induced hyperalgesia (withdrawal latency of ipsilateral, carrageenan-injected hind paw): 1 hour after administration
Protocol: Anti-migraine agents are commonly evaluated using the carrageenan-induced thermal hyperalgesia model (Bingham et al, Experimental Neurology, 167:65-73 (2001); Daher et al, Life Sciences, 76:2349-2359 (2005)).
Male Wistar rats (5/group) were used for the experiment. Withdrawal latency to escape from heat noxious stimuli on both hind paws of the rats was measured using TAIL FLICK 7360 (Ugo Basile, Italy). 1% Carageenan was injected into the right hind paw footpat of the rats. […] The withdrawal latency from heat stimuli of both hind paws of rats was measured 1, 3 and 5 hours after drug administration.
The effect of carrageenan was observed during all of the experiment period.

[2] = two hours after infusion; patients; cited from earlier work

SMILES	effect on induced hyperalgesia (withdrawal latency of ipsilateral, carrageenan-injected hind paw) ([1]; 3 mg/kg orally, FIG. 1)	effect on induced hyperalgesia (withdrawal latency of ipsilateral, carrageenan-injected hind paw) ([1]; 6 mg/kg orally, FIG. 1)	course of the anti-hyperalgesic effect (ipsilateral hind paw) ([1]; 3 and 6 mg/kg orally, 3 and 5 hours after administration, FIG. 1)	withdrawal latency of contralateral hind paw ([1]; orally, contralateral (left) hind paw, FIG. 2)	effect on motor function (suggested from unchanged contralateral latency) ([1]; rats, orally, FIG. 2)	efficacy rate for a sustained response [2]
N#Cc1ccccc1-c1cc(-c2ccccn2)cn(-c2ccccc2)c1=O [Compound A, 2-(2-oxo-1-phenyl-5-pyridin-2-yl-1,2-dihydropyridin-3-yl)benzonitrile]	inhibited induced hyperalgesia	inhibited induced hyperalgesia	declined	did not change the latency	did not affect motor function	
O=C(O)[C@@H]1C[C@H]2C[C@@H](CCc3nn[nH]n3)CC[C@H]2CN1 [LY293558]						69%
CNS(=O)(=O)Cc1ccc2[nH]cc(CCN(C)C)c2c1 [sumatriptan]						87%

— patent US20060276510A1, “Dihydropyridine compounds and compositions for headaches” (priority 2005, published 2006)
